{"source": "patent US20210085749A1", "about": "“Therapeutic and Neuroprotective Peptides” (Allegro Pharmaceuticals, LLC, priority 2017, published 2021)", "key": {"Wister rat retina": {"test_system": "Wister rat retina", "test": "In vivo dose-related neurotoxic effects of intravitreal Kainic acid, retinal histopathology", "design": "species or system Wister rats", "details": "intravitreal 20 μl of 0.5, 5.0, 50.0 mM; 24 hours post treatment", "protocol": "The right eyes of 4 Wister rats were injected intravitreally with 20 μl of the four different solutions, as follows: A) BSS solution as control, B) 0.5 mM of Kainic acid, C) 5.0 mM of Kainic acid and D) 50.0 mM of Kainic acid.\nThe rats were sacrificed 24 hours post treatment and the eyes were prepared for Histopathology examination."}, "Retinal Neuronal cells": {"test_system": "Retinal Neuronal cells", "test": "In vitro protection of retinal neuronal cells against Kainic acid, Trypan blue exclusion cell count", "type": "cell-based, CD1 mice", "details": "8 hours post exposure", "protocol": "CD1 mice were euthanized by decapitation, eyes were rapidly enucleated into DMEM complement with antibiotic solution and the retina were isolated from the pigment epithelium.\nThe isolated retina was incubated in Hank's medium containing 2.5 mg/ml papain and 0.1 mg/ml of cysteine for 15 minutes at 30° C. After rinsing the Hank's medium, supplemented with 1.9 mM of CaCl2), 0.6 mM of MgCl2 and 0.1 mg/ml of bovine serum albumin.\nThe retina was mechanically dissociated, about 150 μl-200 μl of cell suspension was dispensed into the petri dish containing control medium. Bipolar cells were identified under a microscope by the cells morphology. The cells were incubated for 6 hours before use.\nFour (4) separate Neuronal cell dishes were prepared, as follows: A) Control Retinal Neuronal cells, B) Retinal Neuronal cells incubated with ALG-1001 (Luminate) 1.0 mg/ml, C) Retinal Neuronal cells incubated with […], D) Retinal Neuronal cells incubated with Luminate 1.0 mg/ml for 24 hours before exposure to 500 μM of Kainic acid.\n(§1) Eight (8) hours post exposure, the cell numbers were measured using Trypan blue exclusion assay in a Neubaur Chamber."}, "ARPE-19 cells": {"test_system": "ARPE-19 cells", "test": "In vitro protection of RPE cells against hydrogen peroxide, Trypan blue exclusion cell count", "type": "cell-based", "details": "8 hours post exposure", "protocol": "Hydrogen peroxide (H2O2), a physiological mediator of oxidative stress, is known to induce apoptosis in retinal pigment epithelial (RPE) cells.\nARPE-19 cells were incubated in DMEM/F12 medium supplemented with 10% fetal bovine serum (FBS) and 50 μg/ml streptomycin and 50 μg/ml of penicillin at 37° C. in an atmosphere of 5% CO2.To induce differentiation, ARP-19 cells were cultured in a Laminin coated transwells for 2 weeks in the same medium supplemented with 1% FBS and antibiotics. The RPE cells were then isolated and aliquots of about 150 μl-200 μl of cell suspension were dispensed into the petri dishes containing control medium. The cells were then incubated at 37 degrees C. for 24 hours before use.\nThereafter, the following four (4) separate neuronal cell dishes were prepared as shown below: • A) Control Retinal RPE cells; • B) Retinal RPE cells incubated with 1.0 mg/ml ALG-1001 (Luminate); • C) Retinal RPE cells incubated with 100 μM of Hydrogen Peroxide; and • D) Retinal RPE cells incubated with 1.0 mg/ml ALG-1001 (Luminate) for 24 hours before exposure to 100 μM of Hydrogen Peroxide.\nas §1"}, "retinal ganglion cells": {"test_system": "retinal ganglion cells", "test": "Ocular neuroprotection in vivo, rat model of elevated intraocular pressure (optic nerve ligation), ganglion cell counts", "design": "species or system Wister rats", "protocol": "Healthy Wister rats (n=8) ten (10) weeks of age were kept in a vivarium maintained at a constant temperature of 26° C., and a constant light-dark cycle (14 hours and 10 hours respectively) with food available ad libitum. The rats were randomly divided into a Luminate treatment group of five (5) animals (Group A) and a Basic Salt Solution (BSS-control) treatment group of three (3) animals (Group B).\nThe animals of Group A each received a single intravitreal injection of 1.28 mg/20 μL of Luminate in the right eye. The animals of Group B each received a single intravitreal injection of 20 μL of balanced salt solution (BSS). The left eyes of all animals in Groups A and B were not injected and were used as untreated controls. The intravitreal injections were administered 2 mm posterior to the limbus in the supronasal quadrant using a 30-gauge needle attached to a 1.0 cc syringe. Care was taken to avoid damage to the lens or retina.\nTwenty-four (24) hours after administration of the injections the rats were anesthetized by intraperitoneal injection of 3.0 mL/kg of a mixture of ketamine Hydrochloride (2.5 mg/mL), diazepam (2.0 mg/mL) and atropine (0.1 mg/mL). The eyes were then subjected to peritoneal conjunctival detachment of the lateral rectus muscle to expose the optic nerve. The optic nerve was then ligated with silk suture for a period of 60 minutes during which the absence of blood flow in the retina of each ligated eye was verified by inspection using a Plano contact lens. The ligatures were removed after 60 minutes, and restoration of blood flow to the retina was verified in each previously-ligated eye using the Plano contact lens.\nThe eyes were then enucleated and fixed for histopathological analysis. Specimens of the retina and optic nerve from each eye were dehydrated and embedded in paraffin. Horizontal sections 4 microns thick were cut and stained with hematoxylin and eosin. Under light microscopy, ganglion cell counts were counted in axial sections of the retina of each eye from ora serrata through the optic nerve. Also, in each section, the number of ganglion cells per millimeter through the total length of the retina was calculated digitally, using a measuring slide calibrated for this purpose.\nMeasurement of the inner plexiform layer was performed by observing the slides at a magnification of 40× no more than 1 mm from the optic nerve.\nThe results were subjected to statistical analysis. The results for each group were expressed as mean±standard deviation and the statistical significance between the results of the groups was evaluated by 2 way ANOVA as well as the Mann-Whitney U test. Probabilities of <0.05 were deemed to be significant."}, "[1]": {"test": "Human prospective open label study in Dry AMD, Best Corrected Visual Acuity", "type": "in vivo", "details": "individual Dry AMD patient; single intravitreal injection 1.0 mg/50 μL", "protocol": "To determine if a single Luminate intravitreal injection of 1.0 mg/50 μL has any effect on improving Best Corrected Visual Acuity (BCVA) of Dry AMD subjects with moderate to moderately sever Dry AMD. This is a prospective interventional, open label, IRB approved human clinical proof of concept study conducted in 7 human subjects with moderate to moderately severe Dry AMD. Main inclusion criteria involved patients with Dry Macular Degeneration eyes with relatively intact photoreceptor and RPE layers in the central 1 mm of the macula by OCT. The baseline BCVA of the subjects was between 20/30 and 20/400 with no evidence of sub-retinal fluid or CNV and no history of Anti-VEGF treatment. All recruited patients underwent a baseline single intravitreal injection of Luminate 1.0 mg/50 μL and were monitored monthly, in addition central macular thickness, OCT, digital color photographs and pre and post treatment BCVA were obtained."}, "retinal Muller cells": {"test_system": "retinal Muller cells", "test": "In vitro protection of retinal Muller cells against Kainic acid, Trypan blue exclusion cell count", "type": "cell-based, CD1 mice", "details": "1.0 mg/ml for 24 hours before exposure to 500 μM Kainic acid (Plate D), 48 hours post exposure", "protocol": "CD1 mice were euthanized by decapitation, eyes were rapidly enucleated into DMEM complement with antibiotic solution and stored overnight at room temperature. Subsequently the intact globes were incubated in DMEM containing 0.1% trypsin and 70 U/ml collagenase at 37° C. for 60 minutes.\nThe incubated materials were placed in a petri dish containing DMEM supplemented with 10% fetal bovine serum, and the retinas were removed without the RPE cells into small aggregates and seeded into 35 mm culture dishes. Medium was unchanged for 6 days and then replenished every 3-4 days. The cultures were maintained at 37° C. in a […]/95% O2 in a humidified incubator.\nWhen the cell outgrowth had attained semiconfluency, (80%) retinal aggregates were removed by pipetting the medium into the dish. This operation was repeated three (3) times until a purified flat cell population was obtained. After 24 hours, the cells were exposed to the experimental conditions.\nFour (4) separate Muller cell dishes were prepared, as follows: A) Control Muller cells; B) Muller cells incubated with ALG-1001 (Luminate) 1.0 mg/ml; C) Muller cells incubated with 500 μM of Kainic acid and D) Muller cells incubated with Luminate 1.0 mg/ml for 24 hours before exposure to 500 μM of Kainic acid. Forty Eight (48) hours post exposure, the cell numbers were measured using Trypan blue exclusion assay in a Neubaur Chamber."}}, "note": "Values joined by “and” are separate entries in the source; they are usually repeats but may differ in a detail not shown here. Equal values may be shown once. “Also recorded” adds a separate entry of the source. Square brackets hold non-standard residues; d marks the D form. Peptide text beside a SMILES is read from it. Cya = N[CH](CS(=O)(=O)O)C(=O)O", "data": [{"smiles": "C=C(C)[C@H]1CN[C@H](C(=O)O)[C@H]1CC(=O)O", "note": "[Kainic acid, reference compound]", "values": [{"measurement": "retinal degeneration by histopathology", "setting": "Wister rat retina", "result": "dose-related retinal neurotoxisity"}, {"measurement": "neuronal cell count, % compared to Control", "setting": "Retinal Neuronal cells; 100 μM Kainic acid only (Plate C)", "result": 58, "unit": "%"}]}, {"smiles": "CC(O)C(NC(=O)C(CS(=O)(=O)O)NC(=O)CNC(=O)C(CCCNC(=N)N)NC(=O)CN)C(=O)N1CCCC1C(=O)O", "note": "(centres unmarked) [Luminate, Glycinyl-Arginyl-Glycinyl-Cysteic-Threonyl-Proline] (H-GRG[Cya]TP-OH; configuration not given here)", "values": [{"measurement": "neuronal cell count, % of Control", "setting": "Retinal Neuronal cells; 1.0 mg/ml for 24 hours before exposure to 500 μM Kainic acid (Plate D)", "result": 80, "unit": "%"}, {"measurement": "RPE cell count, % of the control cell count", "setting": "ARPE-19 cells; 1.0 mg/ml for 24 hours before exposure to 100 μM Hydrogen Peroxide (Plate D)", "result": 90, "unit": "%"}, {"measurement": "Difference between medians: Actual (CONTROLS vs. CASES)", "setting": "retinal ganglion cells; ganglion cells per field, BSS controls minus treated", "result": "−9.000"}, {"measurement": "Difference between medians: Hodges-Lehmann (CONTROLS vs. CASES)", "setting": "retinal ganglion cells; ganglion cells per field, 95.05% CI −13.00 to −6.000", "result": "−10.00"}, {"measurement": "neuroprotective effect in rat model of elevated IOP", "setting": "retinal ganglion cells; intravitreal administration, p<0.0001 vs BSS (ANOVA, Mann-Whitney)", "result": "significant neuroprotective effects"}, {"measurement": "Median of column A (ganglion cells per field, CASES)", "setting": "retinal ganglion cells; n = 54 fields, Mann-Whitney vs BSS controls P<0.0001", "result": "18.00, n = 54"}, {"measurement": "SUM of ganglion cells over all fields", "setting": "retinal ganglion cells; per treated eye (case), intravitreal 1.28 mg/20 μL 24 h before 60 min optic nerve ligation", "result": "234 and 165 and 259 and 218 and 175"}, {"measurement": "BCVA 3 Months Post Treatment", "setting": "[1]", "result": "1.0 log Mar (2×) and 1.3 log Mar and 0.20 log Mar and 0.3 log Mar and 0.6 log Mar"}, {"measurement": "BCVA 3 Months Post Treatment (Snellen)", "setting": "[1]", "result": "20/200 (2×) and 20/400 and 20/32 and 20/40 and 20/80"}, {"measurement": "BCVA letters gained 3 Months Post Treatment vs baseline", "setting": "[1]", "result": "up to 20 letters; also recorded: Gained 15 letters; also recorded: Gained no letters; also recorded: Gained 10 letters; also recorded: Gained 20 letters"}, {"measurement": "Muller cell count compared with other plates", "setting": "retinal Muller cells", "result": "higher Muller cell count than any of the other plates"}]}, {"smiles": "OO", "note": "[Hydrogen Peroxide, Hydrogen peroxide, reference compound]", "values": [{"measurement": "RPE cell count, % of the control cell count", "setting": "ARPE-19 cells; 100 μM Hydrogen Peroxide alone (Plate C)", "result": 78, "unit": "%"}]}]}
